According to US20080220471A1, “Vectors and Methods Using Same” (Genentech, Inc., priority 2005, published 2008):
Entries after “also recorded” stand apart in the source; their conditions may differ.

Assays:
tumor = settings: Teicher et al. 2002; cited from earlier work
BRAF = BRAF knockdown in melanoma cell clones (immunoblot densitometry, quantitative PCR); assay type: cell-based, human; settings: melanoma cell clones expressing inducible BRAF shRNA
Source text: FIG. 10: Inducible knockdown of BRAF expression prevents melanoma tumor growth. (A). Schematic representation of a retroviral vector for tetracycline/doxycycline-inducible synthesis of shRNA. The Tet-repressor is constitutively expressed from the β-actin promoter and H1 RNA polymerase III promoter-driven transcription is thereby repressed in the absence of Dox by binding of the TetR protein to the Tet-responsive element sequence located immediately downstream of the TATA box. Addition of Dox results in dissociation of the TetR protein and derepression of the shRNA transcriptional unit. TATA, TATA box; TRE, Tet-responsive element; TetR, Tet-repressor protein; IRES, internal ribosomal entry site; PURO, puromycin resistance gene; LTR, long terminal repeat. B. Experimental validation of BRAF knockdown in melanoma cell lines. […] Lysates were then analyzed by immunoblotting. […]
We generated stable cells that expressed the inducible shRNA retroviral vector shown in FIG. 10A (based on pHUSH-GW). […] In the uninduced state, cells expressing the inducible hairpins were not altered in their baseline growth properties and no discernable background expression could be detected (data not shown). […] BRAF knockdown was reversible and time-dependent, with the maximal mRNA depletion detected 2 days post induction and the corresponding protein depletion occurring at day 3.

LOX-IMVI tumors = experiment: LOX-IMVI inducible shRNA subcutaneous xenograft; assay type: in vivo; settings: for tumor growth: 2 mg/ml Dox plus 5% sucrose in drinking water, start at 100-150 mm^3
Experimental: (§1) Six- to 8-week-old female athymic nu/nu mice or scid-beige mice were purchased from Charles River Laboratories. To assay for BRAF role in subcutaneous tumor models, mice were injected in the right flank with either 3×10^6 human LOX-IMVI or 1×10^7 human A375 TASK121-shRNA containing cell clones in 200 μL phosphate-buffered saline (PBS). When tumors reached a mean volume of 100-150 mm^3 the mice with similarly sized tumors were grouped into treatment cohorts. Mice received 5% sucrose only or 5% sucrose plus 1-2 mg/ml doxycycline for control and knockdown cohorts, respectively. All water bottles were changed 3 times per week. Tumors were measured with calipers and mice weighed twice per week. Mice whose tumors reach 2000 mm^3 were euthanized. At the end of the dosing study, or as indicated, appropriate tumor samples were taken. Each treatment group consisted of 7-10 mice and results are presented as mean tumor volume ±standard deviation (FIGS. 10C-E).

[1] = test system: A375M-luc/shRNA-BRAF cells; experiment: A375M-luc systemic (metastatic) tumor model, survival and bioluminescence; assay type: in vivo, scid-beige mice; settings: 1 mg/ml Dox in drinking water (Dox-mediated BRAF knockdown); i.v. 4×10^5 A375M-luc/shRNA-BRAF cells
Experimental: To evaluate the efficacy of TASK121 knockdown in this model, cohorts of mice with similarly increasing tumor burden were divided into treatment groups. Scid-beige mice were injected intraperitoneally with […] 200 mg/kg D-luciferin (Biotium, Hayward, Calif.) and anesthetized using isoflurane. During image acquisition in a light-tight box, the animal was maintained on isoflurane via nose cone, and body temperature was maintained using a warming pad. Bioluminescence images were acquired using a cooled intensified charge-coupled device camera in an in vivo imaging system (Xenogen, Alameda, Calif.). Image acquisition times were about 1 minute. Images were processed by co-registering a reference image with a thresholded bioluminescence data image.
For metastatic tumor models, female scid-beige mice were injected intravenously with 50 μL PBS containing 4×10^5 A375M-luc shRNA cell clones. Tumor progression was monitored by weekly bioluminescence imaging for luciferase and mice were monitored daily for survival. At least 9 mice were used for each cohort. […] This is a promising strategy to inhibit certain metastatic tumors.

TetR protein = experiment: Western analysis of TetR protein expression in transiently transfected 293T cells; assay type: cell-based; settings: transient transfection, compared to wildtype TetR coding sequence
Experimental: To confirm that codon optimization of the TetR coding region increased expression of the TetR protein, Western analysis was performed. Briefly, plasmids containing the retroviral backbone comprising either wild type TetR (WT) or the codon optimized TetR (OPT) were transiently transfected into 293T cells using lipofectin (commercially available from GIBCO-BRL, Gaithersburg, Md.). Cell lysates were prepared by addition of 50 mM HEPES pH 7.4, 100 mM NaCl, 50 mM NaF, 5 mM B-glycerophosphate, 2 mM EGTA, 1 mM Na vanadate, 1% TX100 to a cell pellet, resolved on a 4-12% acrylamide gel and transferred to a PVDF membrane. Membranes were sequentially probed with Mouse α-TetR (1:5000; MolBiTec) and Rabbit α-Tubulin-HRP (1:5000, Santa Cruz Biotech, Santa Cruz, Calif.). […] “Ev” signifies negative control using retroviral vector lacking a shRNA cassette.

[2] = test system: pHUSH shGL3 clone B11 tumors; experiment: Tumor volume of pHUSH shGL3 clone B11 tumors at each Dox concentration; assay type: in vivo, mice; settings: luciferase-targeting shRNA
Experimental: FIG. 6: (A) The relative change in mean bioluminescence at each time point and treatment condition (n=5 mice per doxycycline dose). […] In addition to the luciferase expression analysis, tumor volume measurements were recorded for the pHUSH shGL3 clone B11 at each concentration of doxycycline.
To determine whether Dox or shRNA expression influenced tumor growth in vivo, tumor volume measurements were recorded for the tumors at each concentration of Dox.

A375 tumors = experiment: A375 inducible shRNA subcutaneous xenograft; assay type: in vivo, athymic nu/nu mice; settings: 2 mg/ml Dox in drinking water
Experimental: as §1

[3] = test system: pGL3-mu-p53 (murine p53 sequences); experiment: Luciferase-based transient co-transfection comparing shRNA and miRNA vectors against p53; assay type: cell-based; settings: p53-1 sequence, higher transfection ratios
Source text: FIG. 15: Luciferase-based transient co-transfection experiments compared shRNA and miRNA inducible expression vector performance. A. Comparison of H1-shRNA and CMV-miR vectors corresponding to murine p53 sequences transfected at 7.5:1, 5:1 and 2.5:1 shRNA:pGL3-mu-p53. B. The removal of the EmGFP leader rendered miR-p53-1 non-functional at a co-transfection ratio of 10:1.
In order to compare the efficacy of shRNA versus miRNA design, two effective miRNAs directed against p53 were converted to H1-shRNAs by identifying the 21-22 nt active siRNA within the miRNA scaffold and then by converting these active siRNAs back to N19 shRNAs. In addition, we examined the effect of having a linker sequence upstream of the miRNA. The following oligonucleotides were used in this study: […]

In the case of `Cl.Cn1cc(C2=C(c3cn(C4CCN(Cc5ccccn5)CC4)c4ccccc34)C(=O)NC2=O)c2ccccc21` [317615-HCL], the anti-tumor effect (tumor) is given as “anti-tumor effect”.

In the case of `C[C@H]1c2cccc(O)c2C(=O)C2=C(O)[C@]3(O)C(=O)C(C(N)=O)=C(O)[C@@H](N(C)C)[C@@H]3[C@@H](O)[C@@H]21` [Dox, 1-dimethylamino-2,4-a,5,7,12-pentahydroxy-11-methyl-4,6-dioxo-1,4a,11,11a,12,12a-hexahydrotetracene-3-carboxamide], the “Dox IC50 for suppression of BRAF protein levels” value (BRAF) is reported as “approximately 5 ng/ml”, the “body weight between treatment groups” value (LOX-IMVI tumors; 2 mg/ml Dox plus 5% sucrose vs 5% sucrose) is reported as “no difference in body weight” and the “lethality or weight loss” value (LOX-IMVI tumors; 2 mg/ml Dox via drinking water, LOX-IMVI and A375 xenograft experiments) is reported as “No lethality or weight loss was observed”. For the same molecule, the “lower threshold for in vivo expression of the shRNA” value (LOX-IMVI tumors; pHUSH vector system, drinking water) was roughly 0.02 mg/mL and the median survival [1] was 33.4 days.

B1: codon optimized TetR: TetR coding region codon optimized for mammalian expression (SEQ ID NO:1) (nucleic acid)
DNA: ATGTCCAGACTGGATAAGTCCAAGGTGATTAATTCCGCTCTGGAACTCCTGAACGAGGTCGGCATCGAGGGACTGACCACACGGAAGCTGGCTCAGAAACTCGGCGTCGAACAGCCTACCCTCTACTGGCATGTCAAAAATAAGAGAGCCCTCCTGGACGCCCTGGCTATCGAGATGCTGGACAGACACCACACCCACTTCTGCCCCCTGGAAGGCGAATCCTGGCAGGATTTCCTCCGGAACAACGCTAAAAGCTTTAGATGCGCCCTCCTCAGCCATAGAGACGGAGCTAAAGTGCACCTGGGAACCCGGCCTACAGAAAAACAGTACGAGACACTGGAAAACCAGCTCGCTTTCCTCTGCCAACAAGGCTTTAGCCTGGAAAACGCCCTCTACGCTCTCAGCGCTGTCGGCCATTTTACACTGGGCTGCGTGCTCGAGGACCAGGAGCACCAAGTGGCTAAAGAGAGCGGGAAACCCCTACCACCGATAGCATGCCCCCCCTGCTGAGACAAGCCATTGAGCTCTTTGATCATCAGGGAGCTGAACCCGCCTTCCTCTTTGGACTCGAACTCATTATTTGCGGACTCGAGAAGCAACTGAAATGCGAAAGCGGAAGCGCCTACTCCGGCTCCAGAGAATTTCGGTCCTACTAG
modifications: Codon-optomized TetR
With B1 the “expression of the TetR protein” value (TetR protein) was “significantly increased expression of the TetR protein”.

B2: Luciferase control shRNA: shRNA targeting the luciferase coding region (SEQ ID NO:9 / 15) in pHUSH (nucleic acid)
sense: GATCCCCCTTACGCTGAGTACTTCGATTCAAGAGATCGAAGTACTCAGCGTAAGTTTTTTGGAAA
antisense: AGCTTTTCCAAAAAACTTACGCTGAGTACTTCGATCTCTTGAATCGAAGTACTCAGCGTAAGGGG
For B2, the “influence on tumor growth in vivo (tumor volume)” value [2] was “does not influence tumor growth in vivo”, the tumor growth (LOX-IMVI tumors) was “did not affect tumor growth kinetics” and the tumor growth (LOX-IMVI tumors; listed as control shRNA directed against Luciferase) was “continued to increase in size”.

B3: GFP control shRNA: EGFP shRNA (SEQ ID NO:17/18) control hairpin in pHUSH (nucleic acid)
sense: GATCCCCAGATCCGCCACAACATCGATTCAAGAGATCGATGTTGTGGCGGATCTTGTTTTTTGGAAA
antisense: AGCTTTTCCAAAAAACAAGATCCGCCACAACATCGATCTCTTGAATCGATGTTGTGGCGGATCTGGG
For B3, the tumor growth (A375 tumors) was “no discernable effect on tumor growth; also recorded: did not affect tumor growth kinetics”.

B4: H1-shRNA-p53-1: H1 promoter N19 shRNA converted from the p53-1 miRNA (nucleic acid)
DNA: GATCCCCAGTACGTGCACATAACAGACTTTCAAGAGAAGTCTGTTGTGCACGTACTTTTTTTGGAAA
For B4, the “knockdown compared to CMV-miR” value [3] was “slight increase in knockdown”.
